Measurements: US20150368617A1, “METHOD FOR FORMING ENDOTHELIAL CELLS” (Korea Advanced Institute of Science and Technology (KAIST), priority 2012, published 2015)

Experiments:
ESC = experiment: Estimation of number of ECs generated from one ESC in the 2D Matrigel system; type: cell-based, mouse; conditions: day 8.5
Experimental: FIG. 16. Estimation and comparison of number of ECs generated from one ESC grown with indicated agents in the 2D Matrigel system at day 6.5 and 8.5. Estimation was calculated from 5 independent incubations.
To maximize the amount of ECs obtained from ESC, we expanded the ICAM2+ ECs for 2 days using the same culture system with VEGF-A and Y27632 (FIG. 14A). When the ECs were grown for 2 days without either VEGF-A or Y27632, the population of CD31+/CD144+ ECs underwent a decrease of ˜30% from the initial population of ˜90% (FIG. 14B-D). […] This way, we were further able to obtain ˜4.2-fold expansion of CD31+/CD144+ ECs from the ICAM2+ ECs (FIGS. 14B-F) In the presence of VEGF-A, Y27632 promoted the adhesion of ICAM2+ ECs onto the plate by 1.3-fold at 6 hrs after plating (FIG. 14G). In these purified ECs, Y27632 and VEGF-A each promoted the proliferation of ECs to a similar level, and combination of Y27632 and VEGF-A promoted EC proliferation to a greater degree. […] Based on these findings, we conclude that further expansion of high purity ECs (>90%) could be achieved from ESC by combination of simultaneous ROCK suppression and VEGF-stimulation—these high purity ECs are hereafter referred to as “VEGF-A plus Y27632-induced and anti-ICAM2 antibody-sorted ECs (VYI-ECs)” (FIG. 14A). […]

Flk1+ MPCs = experiment: Differentiation and expansion of ECs from Flk1+ MPCs in feeder cell-free 2D Matrigel system, FACS of CD31+/CD144+ ECs; type: cell-based, mouse; conditions: for differentiation and expansion of ECs compared to control: Y27632 10 μM; for increase of CD31+/CD144+ EC population compared to Control: day 6.5, E14tg2a
Experimental: E14tg2a ESC cell line was a generous gift from Dr. Jun K. Yamashita (Kyoto University), and R1 ESC cell line was purchased from American Type Cell Culture. Mouse iPSC derived from FVB strain was a generous gift from Drs. Hyun-Jai Cho and Hyo-Soo Kim (Seoul National University Hospital). To obtain Flk1+ MPCs, ESCs and iPSCs were cultured on 0.1% gelatin-coated plates at a density of 1-2×10^3 cells/cm^2 in differentiation medium [┌−minimal essential medium (Invitrogen) supplemented with 10% fetal bovine serum (FBS)] without leukemia inhibitory factor (LIF). At day 4.5, the Flk1+ MPCs were purified by AutoMACS™Pro Separator (Miltenyi Biotec) with biotin-conjugated anti-mouse Flk1 antibody (clone AVAS12a1, eBioscience) and streptavidin MicroBeads (Miltenyi Biotec). The Flk1+MPCs were then subsequently plated onto Matrigel (BD Biosciences)-coated plates at a density of 1˜2×10^4 cells/cm^2, and were cultured in differentiation medium supplemented with VEGF-A165 (50 ng/ml, Peprotech). To purify the ECs from the differentiating Flk1+ cells, the cells were first dissociated and resuspended in HBSS/2% FBS, and were serially incubated with anti-mouse ICAM2 antibody (rat monoclonal, clone 3C4, Biolegend) for 10 min and with anti-rat IgG Microbead (Miltenyi Biotec) for 15 min. […] VEGF-Trap was prepared as previously described. Various signaling inhibitors and activators including SB203580, PD98059, KT5720, Go6976, KT5823, LY294002, rapamycin, Y27632, SB431542, Rho-kinase inhibitor (RKI; H-1152, isoquinolinesulfonamide), and Rho-kinase inhibitor II (RKI-II; pyridyl urea) were purchased from Calbiochem and Sigma-Aldrich.
Cells were harvested with 0.25% trypsin-EDTA (Invitrogen) or dissociation buffer (Invitrogen) and resuspended in HBSS/2% FBS at 1×10^6 cells per 100┌ l. The cells were incubated for 20 min with the following antibodies: biotin-conjugated anti-mouse Flk1 (clone AVAS12a1, eBioscience), allophycocyanin (APC)-conjugated anti-mouse CD140a (clone APA5, eBioscience), phycoerythrin(PE)-conjugated anti-mouse CD31 (clone 390, eBioscience), Alexa Fluor® 647-conjugated anti-mouse CD144 (clone BV13, eBioscience), PE-conjugated anti-mouse D114 (clone HMD4-1, Biolegend), PE-conjugated anti-mouse Tie2 (clone TEK4, eBioscience), PE-conjugated anti-mouse Endoglin (clone MJ7/18, Biolegend), anti-mouse ICAM2 (clone 3C4, Biolegend), APC-conjugated anti-mouse CD140b (clone APBS, eBioscience), PE-conjugated anti-mouse LYVE1 (clone ALY7, eBioscience), anti-mouse VEGFR3 (goat polyclonal, R&D systems), anti-mouse EphB4 (clone VEB4-7E4, Hycult biotech), and PE-conjugated anti-mouse Notch1 (clone HMN1-12, Biolegend). After washing in HBSS/2% FBS twice, the cells were incubated with the following secondary antibodies: PE-conjugated streptavidin (eBioscience), PE-conjugated anti-rat IgG2a (eBioscience), and FITC-conjugated anti-goat IgG (Invitrogen). Dead cells were excluded by 7-aminoactinomycin D (7-AAD, Invitrogen).
Flk1+ MPCs derived from mouse ESCs are capable of differentiating into ECs, hematopoietic cells, mural cells (MCs), and cardiomyocytes. To avoid cell contamination from using feeder cells for differentiation of Flk1+ MPCs, we have established a feeder cell-free 2D Matrigel system (FIG. 1A). Flk1+ MPCs were differentiated from E14tg2a ESC cell line, and when the Flk1+ MPCs were purified at day 4.5 and cultured on Matrigel-coated plates in the differentiation medium, colonies of CD144+ ECs surrounded by ┌ SMA+MCs were formed (FIG. 1B). At day 6.5, population of CD144+/CD31+ ECs grown in differentiation medium was ˜4%, whereas the same EC population was increased up to ˜20% when VEGF-A (50 ng/ml) was supplemented (FIG. 1C). For following experiments, we chose to use 50 ng/ml of VEGF-A (hereafter referred to as VEGF-A) based on its maximal effect on differentiation and expansion of ECs from Flk1+ MPCs.

`C[C@@H](N)[C@H]1CC[C@H](C(=O)Nc2ccncc2)CC1` [Y27632] was tested, and the “number of ECs generated from one ESC (from ˜73 Flk1+ MPCs)” value (ESC) was about 36, the “total number of CD31+/CD144+ ECs from Flk1+ MPCs” value (Flk1+ MPCs; 10 μM Y27632 plus VEGF-A compared to only VEGF-A (Control)) was about 4.2 fold and the “percentage of EC population compared to control” value (Flk1+ MPCs; 48 hrs after removal of the non-adherent cells at 6 hrs) was 1.4 fold. For the same compound, the “differentiation and expansion of ECs compared to control” value (Flk1+ MPCs; R1 ESC cell line) was 1.6 fold, the “increase of CD31+/CD144+ EC population compared to Control” value (Flk1+ MPCs; Y27632 1 μM with VEGF-A 50 ng/ml) was 1.8 fold and the “increase of CD31+/CD144+ EC population compared to Control” value (Flk1+ MPCs; Y27632 10 μM with VEGF-A 50 ng/ml) was 4.1 fold. The “differentiation and expansion of ECs compared to control” value (Flk1+ MPCs; iPSC) was 5.9 fold and the “percentage of EC population and total cell number, dose-dependent” value (Flk1+ MPCs; various concentrations of Y27632 with VEGF-A) was “increased”.
